# Measurements published in patent publication US5441985A, “Treatment of lower urinary tract disorders with selective norepinephrine uptake inhibitors” (priority 1993, dated 1995).
# pIC50: −log10 of the molar value. Where two headings read alike, the source gives them in different places.
# Tests used:
# nocturnal enuresis = conditions: cited from earlier work; for effectiveness in treating nocturnal enuresis: human, in vivo
# [1] = system: rat urinary bladder strips; conditions: cited from earlier work
# cholinergic receptors [2] = conditions: read-out: IC50 for displacement of tritiated-quinuclidinol benzoate (QNB) binding, cited from earlier work
# rabbit bladder = conditions: cited from earlier work
# [3] = system: guinea pig bladder muscle strips; conditions: guinea pig bladder muscle strips in vitro; cited from earlier work
# [4] = system: dog urethra and bladder fragments; test: NE release in dog urethra and bladder fragments in vitro
# [5] = system: rabbit urethra and bladder fragments; test: NE release in rabbit urethra and bladder fragments in vitro
# stress incontinence = conditions: women with stress incontinence; cited from earlier work
# guinea pig bladder = conditions: guinea pig strips in vitro and cystometrogram in vivo; cited from earlier work
# rabbit bladder strips [6] = conditions: cited from earlier work
# dog bladder strips [7] = conditions: cited from earlier work
# human bladder strips = conditions: cited from earlier work
# dog bladder strips [8] = conditions: cited from earlier work; remark: listed apart in the source
# bladder [9] = conditions: female dogs; cited from earlier work
# [10] = system: muscarinic presynaptic receptors; conditions: rat bladder tissue in vitro; cited from earlier work
# rabbit bladder strips [11] = conditions: in the presence of imipramine; cited from earlier work
# rabbit detrusor strips = rabbit detrusor strips in vitro; cited from earlier work
# frog sciatic nerves = frog sciatic nerves in vitro; cited from earlier work
# dog bladder and urethra = conditions: cited from earlier work
# cat bladder = conditions: in vivo; cited from earlier work
# [12] = system: dog bladder muscle strips; conditions: cited from earlier work
# urethra = conditions: female dogs; cited from earlier work
# micturition reflex = conditions: cited from earlier work
# [13] = children under 5 years of age; cited from earlier work
# [14] = clinical evaluation as potential treatments for depression, side effects
# cholinergic receptors [15] = test: 3H-QNB ligand displacement assay (in vitro anti-cholinergic assay); type: binding; conditions: 3H-QNB displacement; read-out: anticholinergic IC50
# bladder [16] = test: bladder function in the cat; type: in vivo
# rat urethral tissue = test: contractile response of rat urethral tissue to NE
# rat bladder tissue = test: relaxation of rat bladder tissue to NE
# [17] = human, in vivo
smiles,measurement,setting,value
CN(C)CCC=C1c2ccccc2CCc2ccccc21 [amitriptyline],effectiveness in treating nocturnal enuresis,nocturnal enuresis,effective
same,contractile response to electrical stimulation,[1],suppressed the contractile response
CN1[C@@H]2CC[C@H]1C[C@@H](OC(=O)C(CO)c1ccccc1)C2 (some centres unmarked) [atropine],pIC50,cholinergic receptors [2],4.28
same,suppression/inhibition of field stimulated contraction,rabbit bladder; rabbit bladder organ bath,30%
same,suppression/relaxation of bethanechol-induced contraction,rabbit bladder; rabbit bladder organ bath,70%
same,potassium-induced contraction,[3],not effect at high concentration
CNCCCN1c2ccccc2CCc2ccccc21 [desipramine],effectiveness in treating nocturnal enuresis,nocturnal enuresis,effective
same,contractile response to electrical stimulation,[1],suppressed the contractile response
CN(C)CCCN1c2ccccc2CCc2ccccc21 [imipramine],NE release,[4],increase NE release
same,NE release,[5],increase NE release
same,pIC50,cholinergic receptors [2]; bladder homogenates,4.89
same,suppression/inhibition of field stimulated contraction,rabbit bladder; rabbit bladder organ bath,50%
same,suppression/relaxation of bethanechol-induced contraction,rabbit bladder; rabbit bladder organ bath,50%
same,further patients with improvements,nocturnal enuresis; following treatment,15-20%
same,patients with enuresis cured,nocturnal enuresis; following treatment,over 50%
same,restoring continence,stress incontinence,effective as a single therapy
same,activity on bladder,guinea pig bladder,"anticholinergic, antispasmodic, and local anesthetic activity"
same,contractile responses to acetylcholine (ACH),rabbit bladder strips [6],block in vitro contractile responses
same,contractile responses to acetylcholine (ACH),dog bladder strips [7],block in vitro contractile responses
same,contractile responses to acetylcholine (ACH),human bladder strips,block in vitro contractile responses
same,contractile responses to barium chloride,dog bladder strips [8],suppressed contractile responses to barium chloride
same,musculotropic relaxant effect,dog bladder strips [8]; compared with flavoxate,more potent than that of flavoxate
same,cholinergic contractile responses induced by bethanechol,dog bladder strips [8]; dog bladder strips,suppressed cholinergic contractile responses
same,bladder pressure responses to pelvic nerve stimulation,bladder [9],reduced bladder pressure responses
same,effect on muscarinic presynaptic receptors,[10],strong antagonistic effect on muscarinic presynaptic receptors
same,effectiveness of calcium to augment bethanechol-induced contraction,rabbit bladder strips [11],decreased effectiveness of calcium
same,carbamylcholine and barium chloride-induced contractions,rabbit detrusor strips,antagonize
same,impulse conduction,frog sciatic nerves,block the impulse conduction
same,bladder and urethral pressure responses to pelvic nerve stimulation and other stimuli,dog bladder and urethra,reduce dog bladder and urethral pressure responses
same,effects of hypogastric nerve stimulation on bladder relaxation,cat bladder,potentiated the effects of hypogastric nerve stimulation
same,relaxation effects of norepinephrine,[12]; with norepinephrine,enhanced the in vitro relaxation effects of norepinephrine
same,effect on bladder muscle strips alone,[12]; without norepinephrine,no effects alone
same,urethral pressure,urethra,increase urethral pressure
same,supraspinal reflex or myogenic activity of bladder,micturition reflex; acute administration,no effect
same,threshold for activating the bladder-spinal-bladder (vesicovesical) micturition reflex,micturition reflex; acute administration,increased the threshold
same,threshold for supraspinal reflex,micturition reflex; repeated administration,increased threshold for supraspinal reflex
same,potassium-induced contraction,[3],suppression of potassium-induced contraction
same,toxicity in children,[13],particularly toxic and potentially lethal in low dosage
same,noted side effect,[14],urine retention
CCN(CC)CC(=O)Nc1c(C)cccc1C [lidocaine],potassium-induced contraction,[3],not effect at high concentration
CNCCC=C1c2ccccc2CCc2ccccc21 [nortriptyline],effectiveness in treating nocturnal enuresis,nocturnal enuresis,effective
CC(C)[N+](C)(CCOC(=O)C1c2ccccc2Oc2ccccc21)C(C)C [propantheline],pIC50,cholinergic receptors [2]; bladder homogenates,4.53
"CNCC[C@@H](Oc1ccccc1C)c1ccccc1 [tomoxetine, (-)-N-methyl-3-(2-methylphenoxy)-3-phenylpropylamine]",pIC50,cholinergic receptors [15],4.68
same,amplitude and frequency of contractions,bladder [16],decreasing the amplitude and frequency of contractions
same,bladder capacity,bladder [16],increasing bladder capacity
same,NE release,[4],increase NE release
same,NE release,[5],increase NE release
same,contractile response of urethral tissue to NE,rat urethral tissue,significantly increase the contractile response
same,relaxation of bladder tissue to NE,rat bladder tissue,augment the relaxation
same,noted side effect,[17],urine retention
same,"side effects such as dry mouth, drowsiness, and dizziness",[17],considerably fewer side effects
COc1ccc(CCN(C)CCCC(C#N)(c2ccc(OC)c(OC)c2)C(C)C)cc1OC (centres unmarked) [verapamil],suppression/inhibition of field stimulated contraction,rabbit bladder,81%
same,suppression/relaxation of bethanechol-induced contraction,"rabbit bladder; rabbit, bladder",85%
